Assays:
Experiment in all cases: Test B pre-/postemergence
Format in all cases: in vivo
Parameters in all cases: key: 0 is no effect; 10 is complete control
[1] = system: bedstraw (Galium aparine)
Outline: (§1)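 Response scores run from 0, meaning no effect, to 10, meaning complete control, assigned by eye relative to controls twelve to sixteen days after spraying. Treatment was both preemergence on planted seed and postemergence on plants at the 1- to 4-leaf stage.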

[2] = system: broadleaf signalgrass (Brachiaria decumbens)
Outline: as §1

[3] = system: cocklebur (Xanthium strumarium)
Outline: as §1

corn (Zea mays) = system: corn (Zea mays)
Outline: as §1

[4] = system: crabgrass (Digitaria sanguinalis)
Outline: as §1

[5] = system: giant foxtail (Setaria faberii)
Outline: as §1

[6] = system: momingglory (Ipomoea hederacea)
Outline: as §1

[7] = system: pigweed (Amaranthus retroflexus)
Outline: as §1

[8] = system: purple nutsedge (Cyperus rotundus)
Outline: as §1

rape (Brassica napus) = system: rape (Brassica napus)
Outline: as §1

soybean (Glycine max) = system: soybean (Glycine max)
Outline: as §1

[9] = system: sugar beet (Beta vulgaris)
Outline: as §1

[10] = system: velvetleaf (Abutilon theophrasti)
Outline: as §1

[11] = system: wheat (Triticum aestivum)
Outline: as §1

[12] = Preemergence, Rate 62 g/ha, scale of 0 to 10

Cc1cnc(-n2cnc(C(F)(F)F)n2)nc1C(=O)c1cccc(C(F)(F)F)c1 [Compound 67]
Plant response rating, Bedstraw [1, 12]: 7
Bedstraw plant response rating ([1]; Rate 62 g/ha, Postemergence): 9
Bedstraw plant response rating ([1]; Rate 125 g/ha, Postemergence): 9
Plant response rating, Bedstraw ([1]; Rate 125 g/ha, Preemergence): 9
Plant response rating, Bedstraw ([1]; Rate 250 g/ha, Postemergence): 10
Plant response rating, Bedstraw ([1]; Rate 250 g/ha, Preemergence): 9
Plant response rating, Bedstraw ([1]; Rate 500 g/ha, Postemergence): 10
Plant response rating, Bedstraw ([1]; Rate 500 g/ha, Preemergence): 10
B. signalgrass plant response rating ([2]; Rate 62 g/ha, Postemergence): 5
B. signalgrass plant response rating ([2]; Rate 62 g/ha, Preemergence): 8
B. signalgrass plant response rating ([2]; Rate 125 g/ha, Postemergence): 7
Plant response rating, B. signalgrass ([2]; Rate 125 g/ha, Preemergence): 9
Plant response rating, B. signalgrass ([2]; Rate 250 g/ha, Postemergence): 7
Plant response rating, B. signalgrass ([2]; Rate 250 g/ha, Preemergence): 10
Plant response rating, B. signalgrass ([2]; Rate 500 g/ha, Postemergence): 9
Plant response rating, B. signalgrass ([2]; Rate 500 g/ha, Preemergence): 10
Cocklebur plant response rating ([3]; Rate 62 g/ha, Postemergence): 7
Cocklebur plant response rating ([3]; Rate 125 g/ha, Postemergence): 7
Plant response rating, Cocklebur ([3]; Rate 250 g/ha, Postemergence): 8
Plant response rating, Cocklebur ([3]; Rate 250 g/ha, Preemergence): 2
Plant response rating, Cocklebur ([3]; Rate 500 g/ha, Postemergence): 9
Plant response rating, Cocklebur ([3]; Rate 500 g/ha, Preemergence): 5
Plant response rating, Corn (corn (Zea mays); [12]): 4
Corn plant response rating (corn (Zea mays); Rate 62 g/ha, Postemergence): 4
Corn plant response rating (corn (Zea mays); Rate 125 g/ha, Postemergence): 5
Plant response rating, Corn (corn (Zea mays); Rate 125 g/ha, Preemergence): 4
Plant response rating, Corn (corn (Zea mays); Rate 250 g/ha, Postemergence): 6
Plant response rating, Corn (corn (Zea mays); Rate 250 g/ha, Preemergence): 4
Plant response rating, Corn (corn (Zea mays); Rate 500 g/ha, Postemergence): 7
Plant response rating, Corn (corn (Zea mays); Rate 500 g/ha, Preemergence): 7
Plant response rating, Crabgrass [4, 12]: 6
Crabgrass plant response rating ([4]; Rate 62 g/ha, Postemergence): 7
Crabgrass plant response rating ([4]; Rate 125 g/ha, Postemergence): 9
Plant response rating, Crabgrass ([4]; Rate 125 g/ha, Preemergence): 9
Plant response rating, Crabgrass ([4]; Rate 250 g/ha, Postemergence): 10
Plant response rating, Crabgrass ([4]; Rate 250 g/ha, Preemergence): 10
Plant response rating, Crabgrass ([4]; Rate 500 g/ha, Postemergence): 10
Plant response rating, Crabgrass ([4]; Rate 500 g/ha, Preemergence): 10
Plant response rating, Giant foxtail [5, 12]: 7
Giant foxtail plant response rating ([5]; Rate 62 g/ha, Postemergence): 5
Giant foxtail plant response rating ([5]; Rate 125 g/ha, Postemergence): 6
Plant response rating, Giant foxtail ([5]; Rate 125 g/ha, Preemergence): 9
Plant response rating, Giant foxtail ([5]; Rate 250 g/ha, Postemergence): 9
Plant response rating, Giant foxtail ([5]; Rate 250 g/ha, Preemergence): 10
Plant response rating, Giant foxtail ([5]; Rate 500 g/ha, Postemergence): 9
Plant response rating, Giant foxtail ([5]; Rate 500 g/ha, Preemergence): 10
Plant response rating, Morningglory [6, 12]: 8
Morningglory plant response rating ([6]; Rate 62 g/ha, Postemergence): 7
Morningglory plant response rating ([6]; Rate 125 g/ha, Postemergence): 7
Plant response rating, Morningglory ([6]; Rate 125 g/ha, Preemergence): 10
Plant response rating, Morningglory ([6]; Rate 250 g/ha, Postemergence): 10
Plant response rating, Morningglory ([6]; Rate 250 g/ha, Preemergence): 10
Plant response rating, Morningglory ([6]; Rate 500 g/ha, Postemergence): 10
Plant response rating, Morningglory ([6]; Rate 500 g/ha, Preemergence): 10
Plant response rating, Redroot pigweed [7, 12]: 9
Redroot pigweed plant response rating ([7]; Rate 62 g/ha, Postemergence): 9
Redroot pigweed plant response rating ([7]; Rate 125 g/ha, Postemergence): 10
Plant response rating, Redroot pigweed ([7]; Rate 125 g/ha, Preemergence): 10
Plant response rating, Redroot pigweed ([7]; Rate 250 g/ha, Postemergence): 10
Plant response rating, Redroot pigweed ([7]; Rate 250 g/ha, Preemergence): 10
Plant response rating, Redroot pigweed ([7]; Rate 500 g/ha, Postemergence): 10
Plant response rating, Redroot pigweed ([7]; Rate 500 g/ha, Preemergence): 10
Nutsedge plant response rating ([8]; Rate 62 g/ha, Postemergence): 0
Nutsedge plant response rating ([8]; Rate 125 g/ha, Postemergence): 2
Plant response rating, Nutsedge ([8]; Rate 250 g/ha, Postemergence): 4
Plant response rating, Nutsedge ([8]; Rate 500 g/ha, Preemergence): 0
Plant response rating, Rape (rape (Brassica napus); [12]): 7
Rape plant response rating (rape (Brassica napus); Rate 62 g/ha, Postemergence): 6
Rape plant response rating (rape (Brassica napus); Rate 125 g/ha, Postemergence): 8
Plant response rating, Rape (rape (Brassica napus); Rate 125 g/ha, Preemergence): 9
Plant response rating, Rape (rape (Brassica napus); Rate 250 g/ha, Postemergence): 8
Plant response rating, Rape (rape (Brassica napus); Rate 250 g/ha, Preemergence): 10
Plant response rating, Rape (rape (Brassica napus); Rate 500 g/ha, Postemergence): 9
Plant response rating, Rape (rape (Brassica napus); Rate 500 g/ha, Preemergence): 10
Plant response rating, Soybean (soybean (Glycine max); [12]): 1
Soybean plant response rating (soybean (Glycine max); Rate 62 g/ha, Postemergence): 7
Soybean plant response rating (soybean (Glycine max); Rate 125 g/ha, Postemergence): 7
Plant response rating, Soybean (soybean (Glycine max); Rate 125 g/ha, Preemergence): 2
Plant response rating, Soybean (soybean (Glycine max); Rate 250 g/ha, Postemergence): 8
Plant response rating, Soybean (soybean (Glycine max); Rate 250 g/ha, Preemergence): 3
Plant response rating, Soybean (soybean (Glycine max); Rate 500 g/ha, Postemergence): 8
Plant response rating, Soybean (soybean (Glycine max); Rate 500 g/ha, Preemergence): 8
Plant response rating, Sugarbeets [9, 12]: 9
Sugarbeets plant response rating ([9]; Rate 62 g/ha, Postemergence): 9
Sugarbeets plant response rating ([9]; Rate 125 g/ha, Postemergence): 9
Plant response rating, Sugarbeets ([9]; Rate 125 g/ha, Preemergence): 10
Plant response rating, Sugarbeets ([9]; Rate 250 g/ha, Postemergence): 9
Plant response rating, Sugarbeets ([9]; Rate 250 g/ha, Preemergence): 10
Plant response rating, Sugarbeets ([9]; Rate 500 g/ha, Postemergence): 9
Plant response rating, Sugarbeets ([9]; Rate 500 g/ha, Preemergence): 10
Plant response rating, Velvetleaf [10, 12]: 8
Velvetleaf plant response rating ([10]; Rate 62 g/ha, Postemergence): 8
Velvetleaf plant response rating ([10]; Rate 125 g/ha, Postemergence): 8
Plant response rating, Velvetleaf ([10]; Rate 125 g/ha, Preemergence): 9
Plant response rating, Velvetleaf ([10]; Rate 250 g/ha, Postemergence): 8
Plant response rating, Velvetleaf ([10]; Rate 250 g/ha, Preemergence): 10
Plant response rating, Velvetleaf ([10]; Rate 500 g/ha, Postemergence): 8
Plant response rating, Velvetleaf ([10]; Rate 500 g/ha, Preemergence): 10
Plant response rating, Wheat [11, 12]: 3
Wheat plant response rating ([11]; Rate 62 g/ha, Postemergence): 3
Wheat plant response rating ([11]; Rate 125 g/ha, Postemergence): 4
Plant response rating, Wheat ([11]; Rate 125 g/ha, Preemergence): 3
Plant response rating, Wheat ([11]; Rate 250 g/ha, Postemergence): 5
Plant response rating, Wheat ([11]; Rate 250 g/ha, Preemergence): 3
Plant response rating, Wheat ([11]; Rate 500 g/ha, Postemergence): 6
Plant response rating, Wheat ([11]; Rate 500 g/ha, Preemergence): 4

From patent US6525001B1, “Substituted pyrimidine and pyridine herbicides” (Mid-American Commercialization Corporation, priority 1997, dated 2003)
